# Numbered stars: 1 amine (or outer) side, 2 acyl side, 3 side chain; on linkers, the order of the positions; unused ones are H or OH. Side chains are listed from the residue outwards. Peptide text beside a SMILES is read from it. * marks the point of attachment. C18 diacid = O=C(O)CCCCCCCCCCCCCCCCC(=O)*; γGlu = O=C(O)[C@H](CCC(=O)[*:2])N[*:1]; AEEA = NCCOCCOCC(=O)O
# Assay: Assay (II) PK i.v. minipig, in vivo half-life
# Design: species or system Göttingen mini-pigs
# Settings: male, Göttingen, minipig, iv, Half-life minipig, Assay (II)
# Summary of the method: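 Plasma levels after a single 6 nmol/kg intravenous dose in five male Göttingen mini-pigs were measured by TFC/LC/MS/MS against spiked-plasma calibration, sampling to 240 h. Vehicle: 50 mM K2HPO4, 0.05% tween 80, pH 8.0. Individual profiles analysed non-compartmentally for half-life.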
row,half-life [h],SMILES
1,20,CC[C@H](C)[C@H](NC(=O)[C@H](Cc1ccc(O)cc1)NC(=O)[C@H](CCCNC(=N)N)NC(=O)[C@H](CCCNC(=N)N)NC(=O)[C@H](CC(C)C)NC(=O)[C@H](CC(=O)O)NC(=O)[C@H](C)NC(=O)[C@H](C)NC(=O)[C@H](Cc1ccc(O)cc1)NC(=O)[C@H](CCC(N)=O)NC(=O)[C@H](C)NC(=O)[C@H](CCSC)NC(=O)[C@H](CCCCNC(=O)COCCOCCNC(=O)COCCOCCNC(=O)CC[C@H](NC(=O)CCCCCCCCCCCCCCCCC(=O)O)C(=O)O)NC(=O)[C@H](CCC(=O)O)NC(=O)[C@@H]1CCCN1C(=O)[C@@H](NC(=O)[C@H](C)NC(=O)[C@H](CC(N)=O)NC(=O)[C@H](CC(=O)O)NC(=O)CNC(=O)[C@@H]1CCCN1C(=O)[C@H](Cc1ccc(O)cc1)NC(=O)[C@@H](NC(=O)[C@@H]1CCCN1C(=O)[C@H](CCC(=O)O)NC(=O)[C@@H](N)CC(C)C)C(C)C)[C@@H](C)O)C(=O)N[C@@H](CC(N)=O)C(=O)N[C@@H](CCSC)C(=O)N[C@@H](CC(C)C)C(=O)N[C@H](C(=O)N[C@@H](CCCNC(=N)N)C(=O)N1CCC[C@H]1C(=O)N[C@@H](CCCNC(=N)N)C(=O)N[C@@H](Cc1ccc(O)cc1)C(N)=O)[C@@H](C)O [Compound AZ] (H-LEPVYPGDNATPEK([AEEA-AEEA-γGlu-C18 diacid])MAQYAADLRRYINMLTRPRY-NH2; N-terminus and C-terminus assumed)
2,99,CC[C@H](C)[C@H](NC(=O)[C@H](Cc1ccc(O)cc1)NC(=O)[C@H](CCCNC(=N)N)NC(=O)[C@H](CCCNC(=N)N)NC(=O)[C@H](CC(C)C)NC(=O)[C@H](CC(=O)O)NC(=O)[C@H](C)NC(=O)[C@H](C)NC(=O)[C@H](Cc1ccc(O)cc1)NC(=O)[C@H](CCC(N)=O)NC(=O)[C@H](C)NC(=O)[C@H](CCSC)NC(=O)[C@H](CCC(N)=O)NC(=O)[C@H](CCC(=O)O)NC(=O)[C@@H]1CCCN1C(=O)[C@@H](NC(=O)[C@H](C)NC(=O)[C@H](CC(N)=O)NC(=O)[C@H](CC(=O)O)NC(=O)CNC(=O)[C@@H]1CCCN1C(=O)[C@H](Cc1ccc(O)cc1)NC(=O)[C@@H](NC(=O)[C@@H]1CCCN1C(=O)[C@H](CCC(=O)O)NC(=O)[C@H](CC(C)C)NC(=O)[C@@H]1CCCN1)C(C)C)[C@@H](C)O)C(=O)N[C@@H](CC(N)=O)C(=O)N[C@@H](CCSC)C(=O)N[C@@H](CC(C)C)C(=O)N[C@H](C(=O)N[C@@H](CCCNC(=N)N)C(=O)N[C@@H](CCCCNC(=O)COCCOCCNC(=O)COCCOCCNC(=O)CC[C@H](NC(=O)CCCCCCCCCCCCCCCCC(=O)O)C(=O)O)C(=O)N[C@@H](CCCNC(=N)N)C(=O)N[C@@H](Cc1ccc(O)cc1)C(N)=O)[C@@H](C)O [Compound A] (H-PLEPVYPGDNATPEQMAQYAADLRRYINMLTRK([AEEA-AEEA-γGlu-C18 diacid])RY-NH2; N-terminus and C-terminus assumed)
3,24,CC[C@H](C)[C@H](NC(=O)[C@H](Cc1ccc(O)cc1)NC(=O)[C@H](CCCNC(=N)N)NC(=O)[C@H](CCCNC(=N)N)NC(=O)[C@H](CC(C)C)NC(=O)[C@H](CC(=O)O)NC(=O)[C@H](C)NC(=O)[C@H](C)NC(=O)[C@H](Cc1ccc(O)cc1)NC(=O)[C@H](CCC(N)=O)NC(=O)[C@H](C)NC(=O)[C@H](CCSC)NC(=O)[C@H](CCC(N)=O)NC(=O)[C@H](CCCCNC(=O)COCCOCCNC(=O)COCCOCCNC(=O)CC[C@H](NC(=O)CCCCCCCCCCCCCCCCC(=O)O)C(=O)O)NC(=O)[C@@H]1CCCN1C(=O)[C@@H](NC(=O)[C@H](C)NC(=O)[C@H](CC(N)=O)NC(=O)[C@H](CC(=O)O)NC(=O)CNC(=O)[C@@H]1CCCN1C(=O)[C@H](Cc1ccc(O)cc1)NC(=O)[C@@H](NC(=O)[C@@H]1CCCN1C(=O)[C@H](CCC(=O)O)NC(=O)[C@@H](N)CC(C)C)C(C)C)[C@@H](C)O)C(=O)N[C@@H](CC(N)=O)C(=O)N[C@@H](CCSC)C(=O)N[C@@H](CC(C)C)C(=O)N[C@H](C(=O)N[C@@H](CCCNC(=N)N)C(=O)N1CCC[C@H]1C(=O)N[C@@H](CCCNC(=N)N)C(=O)N[C@@H](Cc1ccc(O)cc1)C(N)=O)[C@@H](C)O [Compound BA] (H-LEPVYPGDNATPK([AEEA-AEEA-γGlu-C18 diacid])QMAQYAADLRRYINMLTRPRY-NH2; N-terminus and C-terminus assumed)
